Each structure is given as a SMILES string. Bounds are passed on as bounds.

This is an account of results in patent publication US5580871A, “4-Heteroaryl- 1,4-dihydropyridine compounds with calcium agonist and alpha1 -antagonist activity” (The Dupont Merck Pharmaceutical Company, priority 1995, dated 1996).

In one series the test system is guinea pig left atria. Nature of the series: Positive inotropic effect in guinea pig left atria. The note with it: Cavia porcellus; for EC50: concentration that increases developed tension (DT) by 50% above the control DT, left atria paced at 2 Hz, 37° C.; for Emax: ratio of the maximum effect of the test compound to that of Bay K8644, read-out: Intrinsic Activity. As to the method: Guinea pigs are killed by cervical dislocation. The left atria are removed and mounted at 1 gm resting tension in tissue baths containing oxygenated Krebs bicarbonate solution which is kept at 37° C. The left atria are electrically paced at 2 Hz with square wave pulses of 1 msec duration. The voltage is set at 1.5×threshold level.
After a one hour equilibration period, control values for developed tension (DT, gm) are recorded. Test compounds are then added to the baths, in a cumulative manner to a maximum concentration of 10^-4, to obtain a concentration-response curve. Treatment values of DT are obtained after the drug effect has reached a plateau and the exposure time for each concentration is 5-8 minutes. Percent change of the treatment value from the control value is calculated at each concentration of the test compound.

Series [1] relates to influx of calcium ions into cells. The note with it: background, cited from earlier work.
The next series concerns the target alpha1-adrenoceptor. Nature of the series: [3H]-Prazosin binding assay (affinity for alpha1-adrenoceptors). The note with it: partially purified rat brain membranes; 0.2 nM [3H]-prazosin, 60 min, 25° C. As to the method: The [^3 H]-prazosin binding assay was carried out according to the method described by Timmermans, P. B. M. W. M., Schoop, A. M. C., and Van Zwieten, P. A., Biochem. Pharmacol., 31, 899-905, (1982). The reaction mixture contained partially purified rat brain membranes (source of alpha1 -adrenoceptors), 0.2 nM [^3 H]-prazosin with or without potential displacer in Tris buffer. The mixture was incubated for 60 minutes at 25° C. and subsequently terminated by rapid filtration through glass fiber-filter. Receptor-bound [^3 H]-prazosin trapped in the filter was quantitated by scintillation counting. The inhibitory concentration (IC50) of potential displacer which gives 50% displacement of the total specifically bound [^3 H]-prazosin is presented as a measure of the affinity of such compound for the alpha1 -adrenoceptor.

Another series has as its target T1, Ca^2+ channel (Rattus norvegicus, UniProt P22002).
T1 construct: rat cardiac microsomes (source of Ca^2+ channels); from tissue; host or cells: rat cardiac microsomes
As to the kind of experiment: [3H]-Nitrendipine binding assay (affinity for calcium channels). The note with it: rat cardiac microsomes; 0.5 nM [3H]-nitrendipine, 60 min, 25° C. As to the method:
[^3 H]-Nitrendipine binding assay was carried out according to the method described by G. T. Bolger, et al., Biochem. Biophys. Res. Comm., 104, 1604-1609, (1982). The reaction mixture contained rat cardiac microsomes (source of Ca^2+ channels), 0.5 nM [^3 H]-nitrendipine with or without potential displacer in Tris buffer. The mixture was incubated for 60 minutes at 25° C. and subsequently terminated by rapid filtration through a glass fiber-filter. Membrane-bound [^3 H]-nitrendipine trapped in the filter was quantitated by scintillation counting. The inhibitory concentration (IC50) of potential displacer which gives 50% displacement of the total specifically bound [^3 H]-nitrendipine is presented as a measure of the affinity of such compound for the Ca^2+ channel.

T1 sequence (P22002 whole entry, other chains not shown): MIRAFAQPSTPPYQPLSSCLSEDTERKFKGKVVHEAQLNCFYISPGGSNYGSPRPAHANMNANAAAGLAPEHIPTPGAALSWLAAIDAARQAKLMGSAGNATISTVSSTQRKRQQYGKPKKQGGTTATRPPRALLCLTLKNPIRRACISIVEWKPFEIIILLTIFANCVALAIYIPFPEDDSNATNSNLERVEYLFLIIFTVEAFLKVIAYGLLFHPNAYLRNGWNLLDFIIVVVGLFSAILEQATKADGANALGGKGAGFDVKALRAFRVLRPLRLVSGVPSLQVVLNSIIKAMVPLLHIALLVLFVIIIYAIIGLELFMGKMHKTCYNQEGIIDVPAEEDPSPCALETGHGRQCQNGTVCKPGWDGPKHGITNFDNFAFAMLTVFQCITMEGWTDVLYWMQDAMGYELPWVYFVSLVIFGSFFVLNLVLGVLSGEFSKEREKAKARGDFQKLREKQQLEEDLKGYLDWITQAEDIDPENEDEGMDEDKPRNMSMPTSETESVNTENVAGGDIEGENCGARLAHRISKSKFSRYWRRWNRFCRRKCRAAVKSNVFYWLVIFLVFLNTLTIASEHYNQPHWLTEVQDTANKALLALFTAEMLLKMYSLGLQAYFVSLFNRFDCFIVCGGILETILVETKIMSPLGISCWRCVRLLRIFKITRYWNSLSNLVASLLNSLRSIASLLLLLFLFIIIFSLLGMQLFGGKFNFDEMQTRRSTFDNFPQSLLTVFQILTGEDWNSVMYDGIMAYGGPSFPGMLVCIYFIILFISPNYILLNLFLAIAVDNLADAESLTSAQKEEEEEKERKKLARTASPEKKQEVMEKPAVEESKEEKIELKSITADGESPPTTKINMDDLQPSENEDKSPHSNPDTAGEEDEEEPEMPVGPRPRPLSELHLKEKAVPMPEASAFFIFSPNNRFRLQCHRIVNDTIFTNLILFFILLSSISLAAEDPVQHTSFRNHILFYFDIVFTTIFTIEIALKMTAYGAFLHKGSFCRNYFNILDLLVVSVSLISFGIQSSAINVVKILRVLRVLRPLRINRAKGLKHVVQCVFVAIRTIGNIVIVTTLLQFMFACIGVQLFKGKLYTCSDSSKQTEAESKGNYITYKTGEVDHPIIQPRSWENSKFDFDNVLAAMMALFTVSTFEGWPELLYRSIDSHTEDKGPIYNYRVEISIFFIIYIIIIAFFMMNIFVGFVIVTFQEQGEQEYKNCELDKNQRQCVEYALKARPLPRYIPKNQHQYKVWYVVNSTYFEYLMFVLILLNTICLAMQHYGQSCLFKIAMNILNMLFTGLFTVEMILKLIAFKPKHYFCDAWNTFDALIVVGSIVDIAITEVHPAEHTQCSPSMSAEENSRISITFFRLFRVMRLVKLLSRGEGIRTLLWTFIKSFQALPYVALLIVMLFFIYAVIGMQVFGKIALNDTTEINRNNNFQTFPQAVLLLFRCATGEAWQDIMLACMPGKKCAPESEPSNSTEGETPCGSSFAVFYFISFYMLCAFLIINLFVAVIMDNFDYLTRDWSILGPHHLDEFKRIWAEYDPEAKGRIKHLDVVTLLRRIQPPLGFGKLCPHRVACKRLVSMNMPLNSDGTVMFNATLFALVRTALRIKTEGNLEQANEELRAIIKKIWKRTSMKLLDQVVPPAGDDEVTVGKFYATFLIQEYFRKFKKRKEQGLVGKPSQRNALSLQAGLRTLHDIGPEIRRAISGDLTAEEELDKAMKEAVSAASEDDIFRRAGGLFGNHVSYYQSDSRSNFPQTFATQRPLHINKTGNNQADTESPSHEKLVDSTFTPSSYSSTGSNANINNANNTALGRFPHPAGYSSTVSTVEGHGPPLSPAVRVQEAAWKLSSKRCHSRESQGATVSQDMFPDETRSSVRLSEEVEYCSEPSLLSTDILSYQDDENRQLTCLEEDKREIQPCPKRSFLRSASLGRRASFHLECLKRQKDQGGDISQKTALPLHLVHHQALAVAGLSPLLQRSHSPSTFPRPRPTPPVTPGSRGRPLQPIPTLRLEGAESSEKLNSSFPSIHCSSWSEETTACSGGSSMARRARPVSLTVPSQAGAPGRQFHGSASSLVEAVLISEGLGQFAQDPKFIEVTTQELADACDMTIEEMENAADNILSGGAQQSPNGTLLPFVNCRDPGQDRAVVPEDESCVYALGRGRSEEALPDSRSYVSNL
T1 sequence (P54290 25-944 partner limits assumed, other chains not shown): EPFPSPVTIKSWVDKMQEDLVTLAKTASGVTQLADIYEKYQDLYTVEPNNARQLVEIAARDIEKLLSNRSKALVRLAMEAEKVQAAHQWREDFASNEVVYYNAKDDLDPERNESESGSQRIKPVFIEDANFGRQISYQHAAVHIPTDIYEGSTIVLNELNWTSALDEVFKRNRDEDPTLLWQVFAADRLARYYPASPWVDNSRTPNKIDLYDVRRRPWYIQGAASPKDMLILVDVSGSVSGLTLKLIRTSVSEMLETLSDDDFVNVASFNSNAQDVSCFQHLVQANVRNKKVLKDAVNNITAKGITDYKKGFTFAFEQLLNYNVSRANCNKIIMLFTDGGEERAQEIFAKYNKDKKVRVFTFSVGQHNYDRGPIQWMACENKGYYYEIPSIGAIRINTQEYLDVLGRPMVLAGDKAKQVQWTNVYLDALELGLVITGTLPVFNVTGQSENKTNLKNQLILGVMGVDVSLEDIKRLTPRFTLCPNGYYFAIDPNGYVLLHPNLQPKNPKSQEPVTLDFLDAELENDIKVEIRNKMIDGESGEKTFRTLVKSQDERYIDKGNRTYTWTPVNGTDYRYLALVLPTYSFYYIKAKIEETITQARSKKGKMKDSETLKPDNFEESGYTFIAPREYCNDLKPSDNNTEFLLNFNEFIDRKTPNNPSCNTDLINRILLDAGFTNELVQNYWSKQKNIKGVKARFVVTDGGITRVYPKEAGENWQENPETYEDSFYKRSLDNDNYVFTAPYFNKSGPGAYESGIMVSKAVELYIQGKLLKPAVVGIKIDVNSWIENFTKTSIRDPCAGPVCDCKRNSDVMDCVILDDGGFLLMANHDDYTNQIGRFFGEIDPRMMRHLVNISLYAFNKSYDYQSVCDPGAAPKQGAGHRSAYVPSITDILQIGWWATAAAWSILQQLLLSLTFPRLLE
T1 sequence (P54290 945-1091 partner limits assumed, other chains not shown): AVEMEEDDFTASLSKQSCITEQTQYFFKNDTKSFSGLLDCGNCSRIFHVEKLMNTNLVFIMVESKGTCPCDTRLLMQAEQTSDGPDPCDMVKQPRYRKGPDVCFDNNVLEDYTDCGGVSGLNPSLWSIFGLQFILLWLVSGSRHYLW

As for `COC(=O)C1=C(C)NC(C)=C([N+](=O)[O-])C1c1ccccc1C(F)(F)F` (centres unmarked) [Bay K8644], in the series with guinea pig left atria, the EC50 came out at 150 nM and the Emax is 100%. For the same compound, in series [1] (literature), the “calcium influx, inotropic and vascular effects” value is “promote an influx of calcium ions, into cells thereby producing positive inotropic and vasoconstrictor effects”; the “potency as a calcium agonist relative to CGP 28392” value was “more than ten times as potent as CGP 28392 as a calcium agonist”. Also, the coronary vasoconstriction entry in series [1] (not useful as a cardiotonic) is recorded as “coronary vasoconstricting properties”.

`COc1ccccc1N1CCN(CCOC(=O)C2=C(C)NC(C)=C([N+](=O)[O-])C2c2cccn2C)CC1` (centres unmarked) [Example 77, 1,4-Dihydro-2,6-dimethyl-4-(1-methyl-1H-pyrrol-2-yl)-5-nitro-3-pyridinecarboxylic acid, {2-[4-(2-methoxyphenyl)-1-piperazinyl]ethyl} ester]: the results for the IC50 at alpha1-adrenoceptor and at Ca^2+ channel were 110 nM and 1100 nM, respectively. This compound also showed an EC50 with guinea pig left atria of 230 nM. In addition, the Emax in the series with guinea pig left atria turned out to be 240%.

On to `CC1=C(C(=O)OCCCCN2CCN(c3ncccn3)CC2)C(c2cccn2C)C([N+](=O)[O-])=C(C)N1` (centres unmarked) [Example 58, 1,4-Dihydro-2,6-dimethyl-4-(1-methyl-1H-pyrrol-2-yl)-5-nitro-3-pyridinecarboxylic acid, {4-[4-(2-pyrimidinyl)-1-piperazinyl]butyl} ester], for which the IC50 (as a rule, the midpoint of a concentration-inhibition curve) on alpha1-adrenoceptor worked out at 750 nM; on Ca^2+ channel, 1800 nM. Further, the EC50 in the series on guinea pig left atria is 840 nM. In addition, in the series with guinea pig left atria, the Emax amounted to 195%.

As to `COC(=O)C1=C(C)NC(C)=C([N+](=O)[O-])C1c1ccccc1[S+]([O-])CCCCN1CCN(c2ccccc2OC)CC1` (centres unmarked) [Example 4], the IC50 came to 20 nM at alpha1-adrenoceptor and 890 nM on Ca^2+ channel. Further, the Emax in the series on guinea pig left atria was 43%.

`COc1ccccc1N1CCN(CCCCOC(=O)C2=C(C)NC(C)=C([N+](=O)[O-])C2c2ccoc2)CC1` (centres unmarked) [Example 67]: the results for the IC50 at alpha1-adrenoceptor and at Ca^2+ channel were 63 nM and 3500 nM, respectively. Also, the EC50 in the series with guinea pig left atria was 24000 nM. Also, the Emax with guinea pig left atria came out at 86%.

At alpha1-adrenoceptor, `COc1ccccc1N1CCN(CCOC(=O)C2=C(C)NC(C)=C([N+](=O)[O-])C2c2ccoc2)CC1` (centres unmarked) [Example 55, 4-(3-Furanyl)-1,4-dihydro-2,6-dimethyl-5-nitro-3-pyridinecarboxylic acid, {2-[4-(2-methoxyphenyl)-1-piperazinyl]ethyl} ester] returned an IC50 of 100 nM. In addition, on Ca^2+ channel, the IC50 stood at 5100 nM. Further, in the series on guinea pig left atria, the EC50 was determined as 1000 nM and the Emax is 169%.

Turning to `COc1ccccc1N1CCN(CCOC(=O)C2=C(C)NC(C)=C([N+](=O)[O-])C2c2cccnc2)CC1` (centres unmarked) [Example 61], on alpha1-adrenoceptor, the IC50 is 25 nM. Moreover, on Ca^2+ channel, the IC50 stood at 1300 nM. For the same compound, in the series on guinea pig left atria, the EC50 was 1500 nM and the Emax came to 164%.

For the compound `CC1=C(C(=O)OCCN2CCN(c3ncccn3)CC2)C(c2ccco2)C([N+](=O)[O-])=C(C)N1` (centres unmarked) [Example 60], the IC50 at alpha1-adrenoceptor was determined as 5900 nM. The IC50 on Ca^2+ channel turned out to be 2000 nM. For the same compound, in the series with guinea pig left atria, the EC50 stood at 1600 nM and the Emax was 140%.

The compound `CC1=C(C(=O)OCCCCN2CCN(c3ncccn3)CC2)C(c2cccc3nonc23)C([N+](=O)[O-])=C(C)N1` (centres unmarked) [Example 54] came in with an IC50 at alpha1-adrenoceptor of 820 nM. Also, on Ca^2+ channel, the IC50 was determined as 290 nM. Further, in the series with guinea pig left atria, the EC50 is more than 100000 nM and the Emax turned out to be 21%.

As to `COC(=O)C1=C(C)NC(C)=C([N+](=O)[O-])C1c1ccccc1OCCCCCN1CCN(C(=O)c2ccco2)CC1` (centres unmarked) [Example 5], the IC50 was 2200 nM at alpha1-adrenoceptor and 680 nM on Ca^2+ channel. Also, the EC50 in the series with guinea pig left atria came to 3000 nM. Moreover, the Emax with guinea pig left atria worked out at 269%.

As for `COc1ccccc1N1CCN(CCCCOC(=O)C2=C(C)NC(C)=C([N+](=O)[O-])C2c2cccc3nonc23)CC1` (centres unmarked) [Example 51, 4-(4-Benzofurazanyl)-1,4-dihydro-2,6-dimethyl-5-nitro-3-pyridinecarboxylicacid, {4-[4-(2-methoxyphenyl)-1-piperazinyl]butyl} ester], the values for the IC50 at alpha1-adrenoceptor and at Ca^2+ channel were 120 nM and 110 nM, respectively. This compound showed an EC50 in the series with guinea pig left atria of 11000 nM. Further, the Emax in the series on guinea pig left atria was found to be 175%.

Take `CC1=C(C(=O)OCCN2CCN(c3ncccn3)CC2)C(c2cccnc2)C([N+](=O)[O-])=C(C)N1` (centres unmarked) [Example 62]: the IC50 is more than 1000 nM on alpha1-adrenoceptor and 3700 nM at Ca^2+ channel. In the series with guinea pig left atria, this compound returned an EC50 of more than 100000 nM. For the same compound, the Emax in the series on guinea pig left atria was 48%.

As to `CCCOc1cc(N2CCN(CCCCCOc3ccccc3C3C(C(=O)OC)=C(C)NC(C)=C3[N+](=O)[O-])CC2)ncn1` (centres unmarked) [Example 11], on alpha1-adrenoceptor, the IC50 was determined as 5300 nM. In addition, the IC50 on Ca^2+ channel was 360 nM. Further, in the series with guinea pig left atria, the EC50 turned out to be 43000 nM and the Emax came out at 68%.

In the case of `CC1=C(C(=O)OCCN2CCN(c3ncccn3)CC2)C(c2ccoc2)C([N+](=O)[O-])=C(C)N1` (centres unmarked) [Example 56, 4-(3-Furanyl)-1,4-dihydro-2,6-dimethyl-5-nitro-3-pyridinecarboxylic acid, {2-[4-(2-pyrimidinyl)-1-piperazinyl]ethyl} ester], the IC50 at alpha1-adrenoceptor is 5200 nM. Further, on Ca^2+ channel, the IC50 was 4300 nM. In addition, in the series with guinea pig left atria, the EC50 came to 430 nM and the Emax is 171%.
